# Assay results taken from article PMC5651819, “AtSPX1 affects the AtPHR1–DNA-binding equilibrium by binding monomeric AtPHR1 in solution” (Biochemical Journal, 2017).
# Molecular target: T1, GST–AtSPX1 (Arabidopsis thaliana, UniProt Q8LBH4)
# T1 construct: gene SPX1; contains degradation products and free GST
# T1 sequence (Q8LBH4 1-256): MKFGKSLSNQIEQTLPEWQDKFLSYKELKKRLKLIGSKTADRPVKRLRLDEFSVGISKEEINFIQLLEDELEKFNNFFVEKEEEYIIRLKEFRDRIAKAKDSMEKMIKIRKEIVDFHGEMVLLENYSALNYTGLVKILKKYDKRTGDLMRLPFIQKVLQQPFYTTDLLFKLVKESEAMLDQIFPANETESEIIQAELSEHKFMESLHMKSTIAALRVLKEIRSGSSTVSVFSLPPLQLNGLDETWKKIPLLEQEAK
# Experiment: microscale thermophoresis
# Conditions: unreliable; data not shown; some Pi binding to free GST, precise affinity could not be determined
smiles,measurement,value
O=P(O)(O)O [Pi],Kd,5 to 10 mM
